The compounds below were run against T1, glucokinase (GK) (Homo sapiens, UniProt P35557) (assay: enzymatic glucokinase activity assay (ATP consumption, KinaseGlo luminescence)). Conditions: recombinant GK residues 12-465; 5 μM ATP, 5 mM Glucose; Kact = concentration that displays 50% of the maximal increase in GK activity; read-out: pKact.
T1 construct: I.D. No. 1 corresponds to residues 12-465 of glucokinase; made in house; host or cells: E. coli DH10b-T1r
T1 sequence (P35557 with tags, fused parts or gaps isoform P35557-2): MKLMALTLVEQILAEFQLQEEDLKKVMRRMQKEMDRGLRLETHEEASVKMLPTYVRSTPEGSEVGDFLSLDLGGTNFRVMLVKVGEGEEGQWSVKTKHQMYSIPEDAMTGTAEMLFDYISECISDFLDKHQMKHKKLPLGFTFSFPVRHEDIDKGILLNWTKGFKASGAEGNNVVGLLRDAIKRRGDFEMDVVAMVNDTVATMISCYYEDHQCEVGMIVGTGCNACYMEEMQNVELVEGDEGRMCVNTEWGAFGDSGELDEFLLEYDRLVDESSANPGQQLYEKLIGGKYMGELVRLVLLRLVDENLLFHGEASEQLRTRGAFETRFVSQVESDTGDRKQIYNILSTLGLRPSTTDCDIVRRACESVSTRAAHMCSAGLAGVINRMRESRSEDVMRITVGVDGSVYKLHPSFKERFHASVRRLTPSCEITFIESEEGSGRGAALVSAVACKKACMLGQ
Format: biochemical
Summary of the method: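 Activation was scored as ATP consumption, quantified by KinaseGlo luciferase luminescence after a 60 min room-temperature reaction. Reactions contained E. coli-expressed, purified GK, 5 μM ATP, 5 mM glucose, 10 mM MgCl2, 0.01% Brij35 and 2% DMSO at pH 7.2; pKact was fitted non-linearly.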

`Cc1cc(-c2cc3ccccc3s2)cc(=O)n1[C@@H](CC1CCCCC1)C(=O)Nc1nccs1` [Example 108, (S)-2-(4-(benzo[b]thiophen-2-yl)-6-methyl-2-oxopyridin-1(2H)-yl)-3-cyclohexyl-N-(thiazol-2-yl)propanamide] and `Cc1cc(-c2ccccc2F)cc(=O)n1[C@@H](CC1CCCCC1)C(=O)Nc1nccs1` [Example 110, (S)-3-cyclohexyl-2-(4-(2-fluorophenyl)-6-methyl-2-oxopyridin-1(2H)-yl)-N-(thiazol-2-yl)propanamide] cannot be ordered by EC50: over 15.8 µM for the first, over 15.8 µM for the second.

`Cc1cc(-c2cccc(F)c2)cc(=O)n1[C@@H](CC1CCCCC1)C(=O)Nc1nccs1` [Example 109, (S)-3-cyclohexyl-2-(4-(3-fluorophenyl)-6-methyl-2-oxopyridin-1(2H)-yl)-N-(thiazol-2-yl)propanamide] and `Cc1cc(-c2cccc(S(C)(=O)=O)c2)cc(=O)n1[C@@H](CC1CCCCC1)C(=O)Nc1nccs1` [Example 126, (S)-3-cyclohexyl-2-(6-methyl-4-(3-(methylsulfonyl)phenyl)-2-oxopyridin-1(2H)-yl)-N-(thiazol-2-yl)propanamide] cannot be ordered by EC50: over 15.8 µM for the first, over 15.8 µM for the second.

`Cc1csc(-c2cc(C)n([C@@H](CC3CCCCC3)C(=O)Nc3nccs3)c(=O)c2)c1` [Example 111, (S)-3-cyclohexyl-2-(6-methyl-4-(4-methylthiophen-2-yl)-2-oxopyridin-1(2H)-yl)-N-(thiazol-2-yl)propanamide] and `Cc1cc(-c2cn[nH]c2)cc(=O)n1[C@@H](CC1CCCCC1)C(=O)Nc1nccs1` [Example 113, (S)-3-cyclohexyl-2-(6-methyl-2-oxo-4-(1H-pyrazol-4-yl)pyridin-1(2H)-yl)-N-(thiazol-2-yl)propanamide] cannot be ordered by EC50: over 15.8 µM for the first, over 15.8 µM for the second.

First: Cc1cc(-c2cccc(NS(C)(=O)=O)c2)cc(=O)n1[C@@H](CC1CCCCC1)C(=O)Nc1nccs1 [Example 112, (S)-3-cyclohexyl-2-(6-methyl-4-(3-(methylsulfonamido)phenyl)-2-oxopyridin-1(2H)-yl)-N-(thiazol-2-yl)propanamide]
Second: CNS(=O)(=O)c1cccc(-c2cc(C)n([C@@H](CC3CCCCC3)C(=O)Nc3nccs3)c(=O)c2)c1 [Example 114, (S)-3-cyclohexyl-2-(6-methyl-4-(3-(N-methylsulfamoyl)phenyl)-2-oxopyridin-1(2H)-yl)-N-(thiazol-2-yl)propanamide]
The EC50 of the first is higher: over 15.8 µM for the first, 1.58 to 15.8 µM for the second.

First: CNS(=O)(=O)c1ccc(-c2cc(C)n([C@@H](CC3CCCCC3)C(=O)Nc3nccs3)c(=O)c2)cc1 [Example 115, (S)-3-cyclohexyl-2-(6-methyl-4-(4-(N-methylsulfamoyl)phenyl)-2-oxopyridin-1(2H)-yl)-N-(thiazol-2-yl)propanamide]
Second: COc1ccc2nc(NC(=O)[C@@H](CC3CCCCC3)n3c(C)cc(S(=O)(=O)C4CC4)cc3=O)sc2n1 [Example 122, (R)-3-cyclohexyl-2-(4-(cyclopropylsulfonyl)-6-methyl-2-oxopyridin-1(2H)-yl)-N-(5-methoxythiazolo[5,4-b]pyridin-2-yl)propanamide]
The EC50 of the first is higher: over 15.8 µM for the first, 1.58 to 15.8 µM for the second. The second is the more potent here.

First: CC(C)(O)c1cnc(NC(=O)C(CC2CCOCC2)n2ccc(S(=O)(=O)C3CC3)cc2=O)s1 (stereo not shown) [Example 117, 2-(4-(cyclopropylsulfonyl)-2-oxopyridin-1(2H)-yl)-N-(5-(2-hydroxypropan-2-yl)thiazol-2-yl)-3-(tetrahydro-2H-pyran-4-yl)propanamide]
Second: COC(C)(C)c1cnc(NC(=O)[C@@H](CC2CCOCC2)n2ccc(S(=O)(=O)C3CC3)cc2=O)s1 [Example 132, (R)-2-(4-(cyclopropylsulfonyl)-2-oxopyridin-1(2H)-yl)-N-(5-(2-methoxypropan-2-yl)thiazol-2-yl)-3-(tetrahydro-2H-pyran-4-yl)propanamide]
The EC50 of the first is higher: over 15.8 µM for the first, 1.58 to 15.8 µM for the second.

`Cc1c(S(=O)(=O)C2CCCC2)c(C)c(=O)n(C(CC2CCOCC2)C(=O)Nc2ncc(Cl)s2)c1C` (stereo not shown) [Example 118, N-(5-chlorothiazol-2-yl)-2-(4-(cyclopentylsulfonyl)-3,5,6-trimethyl-2-oxopyridin-1(2H)-yl)-3-(tetrahydro-2H-pyran-4-yl)propanamide] and `Cc1c(S(=O)(=O)C2CCCC2)c(C)c(=O)n([C@@H](CC2CCOCC2)C(=O)Nc2ncc(Cl)s2)c1C` [Example 135, (S)-N-(5-chlorothiazol-2-yl)-2-(4-(cyclopentylsulfonyl)-3,5,6-trimethyl-2-oxopyridin-1(2H)-yl)-3-(tetrahydro-2H-pyran-4-yl)propanamide] cannot be ordered by EC50: under 1.58 µM for the first, under 1.58 µM for the second.

Compared with `Cc1cc(S(=O)(=O)c2cc(Cl)sc2Cl)cc(=O)n1C(CC1CCOCC1)C(=O)Nc1ncc(Cl)s1` (stereo not shown) [Example 119, N-(5-chlorothiazol-2-yl)-2-(4-(2,5-dichlorothiophen-3-ylsulfonyl)-6-methyl-2-oxopyridin-1(2H)-yl)-3-(tetrahydro-2H-pyran-4-yl)propanamide], `Cc1cc(S(=O)(=O)Cc2cccs2)cc(=O)n1C(CC1CCOCC1)C(=O)Nc1ncc(Cl)s1` (stereo not shown) [Example 134, N-(5-chlorothiazol-2-yl)-2-(6-methyl-2-oxo-4-(thiophen-2-ylmethylsulfonyl)pyridin-1(2H)-yl)-3-(tetrahydro-2H-pyran-4-yl)propanamide] is lower in EC50: 1.58 to 15.8 µM for the first, under 1.58 µM for the second.

First: COCCC(C)(C)S(=O)(=O)c1ccn([C@H](CC2CCOCC2)C(=O)Nc2nc3ccc(OC)nc3s2)c(=O)c1 [Example 120, (R)-2-(4-(4-methoxy-2-methylbutan-2-ylsulfonyl)-2-oxopyridin-1(2H)-yl)-N-(5-methoxythiazolo[5,4-b]pyridin-2-yl)-3-(tetrahydro-2H-pyran-4-yl)propanamide]
Second: COCCC(C)(C)S(=O)(=O)c1ccn([C@@H](CC2CCOCC2)C(=O)Nc2nc3ccc(OC)nc3s2)c(=O)c1 [Example 121, (S)-2-(4-(4-methoxy-2-methylbutan-2-ylsulfonyl)-2-oxopyridin-1(2H)-yl)-N-(5-methoxythiazolo[5,4-b]pyridin-2-yl)-3-(tetrahydro-2H-pyran-4-yl)propanamide]
The EC50 of the first is higher: over 15.8 µM for the first, 1.58 to 15.8 µM for the second. The second is the more potent here.

`COc1ccc2nc(NC(=O)[C@H](CC3CCCCC3)n3c(C)cc(S(=O)(=O)C4CC4)cc3=O)sc2n1` [Example 123, (S)-3-cyclohexyl-2-(4-(cyclopropylsulfonyl)-6-methyl-2-oxopyridin-1(2H)-yl)-N-(5-methoxythiazolo[5,4-b]pyridin-2-yl)propanamide] and `CN(C)c1ccc2nc(NC(=O)C(CC3CCOCC3)n3ccc(S(=O)(=O)C4CC4)cc3=O)sc2n1` (stereo not shown) [Example 128, 2-(4-(cyclopropylsulfonyl)-2-oxopyridin-1(2H)-yl)-N-(5-(dimethylamino)thiazolo[5,4-b]pyridin-2-yl)-3-(tetrahydro-2H-pyran-4-yl)propanamide] cannot be ordered by EC50: under 1.58 µM for the first, under 1.58 µM for the second.

First: O=C(Nc1ncc(Cl)s1)C(CC1CCCCC1)n1cc(Cl)c2sccc2c1=O (stereo not shown) [Example 124, 2-(7-chloro-4-oxothieno[3,2-c]pyridin-5(4H)-yl)-N-(5-chlorothiazol-2-yl)-3-cyclohexylpropanamide]
Second: O=C(Nc1ncc(Cl)s1)C(CC1CCCCC1)n1ccc(C(=O)N2CCCC2)cc1=O (stereo not shown) [Example 129, N-(5-chlorothiazol-2-yl)-3-cyclohexyl-2-(2-oxo-4-(pyrrolidine-1-carbonyl)pyridin-1(2H)-yl)propanamide]
The EC50 of the first is higher: over 15.8 µM for the first, 1.58 to 15.8 µM for the second. The second is the more potent here.

First: COc1ccc2nc(NC(=O)C(CC3CCOCC3)n3ccc(N4CC[C@H](O)C4)cc3=O)sc2n1 (stereo partly drawn) [Example 125, 2-(4-((S)-3-hydroxypyrrolidin-1-yl)-2-oxopyridin-1(2H)-yl)-N-(5-methoxythiazolo[5,4-b]pyridin-2-yl)-3-(tetrahydro-2H-pyran-4-yl)propanamide]
Second: COc1ccc2nc(NC(=O)C(CC3CCOCC3)n3ccc(S(=O)(=O)C4CC4)cc3=O)sc2c1 (stereo not shown) [Example 127, 2-(4-(cyclopropylsulfonyl)-2-oxopyridin-1(2H)-yl)-N-(6-methoxybenzo[d]thiazol-2-yl)-3-(tetrahydro-2H-pyran-4-yl)propanamide]
The EC50 of the first is higher: over 15.8 µM for the first, 1.58 to 15.8 µM for the second.

`O=C(Nc1nc2ccc(Cl)cc2s1)C(CC1CCOCC1)n1ccc(S(=O)(=O)C2CC2)cc1=O` (stereo not shown) [Example 130, N-(6-chlorobenzo[d]thiazol-2-yl)-2-(4-(cyclopropylsulfonyl)-2-oxopyridin-1(2H)-yl)-3-(tetrahydro-2H-pyran-4-yl)propanamide] and `O=C(Nc1nc2ccc(F)cc2s1)C(CC1CCOCC1)n1ccc(S(=O)(=O)C2CC2)cc1=O` (stereo not shown) [Example 131, 2-(4-(cyclopropylsulfonyl)-2-oxopyridin-1(2H)-yl)-N-(6-fluorobenzo[d]thiazol-2-yl)-3-(tetrahydro-2H-pyran-4-yl)propanamide] fall in the same range of EC50: 1.58 to 15.8 µM for the first, 1.58 to 15.8 µM for the second.

`COC(C)(C)c1cnc(NC(=O)[C@H](CC2CCOCC2)n2ccc(S(=O)(=O)C3CC3)cc2=O)s1` [Example 133, (S)-2-(4-(cyclopropylsulfonyl)-2-oxopyridin-1(2H)-yl)-N-(5-(2-methoxypropan-2-yl)thiazol-2-yl)-3-(tetrahydro-2H-pyran-4-yl)propanamide] and `Cc1c(S(=O)(=O)C2CCCC2)c(C)c(=O)n([C@H](CC2CCOCC2)C(=O)Nc2ncc(Cl)s2)c1C` [Example 136, (R)-N-(5-chlorothiazol-2-yl)-2-(4-(cyclopentylsulfonyl)-3,5,6-trimethyl-2-oxopyridin-1(2H)-yl)-3-(tetrahydro-2H-pyran-4-yl)propanamide] fall in the same range of EC50: 1.58 to 15.8 µM for the first, 1.58 to 15.8 µM for the second.

— patent publication US8163779B2, “Glucokinase activators” (Takeda San Diego, Inc., priority 2006, dated 2012)
